Laboratory results taken from US20190315966A1, “COMPOUNDS FOR THE DETECTION OF SENESCENT CELLS” (THE UNIVERSITY OF MANCHESTER, priority 2016, published 2019).

Tests used:
[1] = per Georgakopoulou et al, Aging 2013; cited from earlier work
[2] = system: lipofuscin rich cells in human seminal vesicle and human liver with steatohepatitis; assay: Control staining of reference tissues with high lipofuscin content (seminal vesicle, liver with steatohepatitis); details: human seminal vesicle and liver with steatohepatitis sections
Description: (§1) Tissue sections were obtained from paraffin embedded, formalin fixed: (a) human seminal vesicle and (b) human liver with steatohepatitis that have high content of lipofusin making them ideal reference (control) tissues to test the SBB assay. Subsequently, they were immobilized on glass microscopy slides by standard procedures and processed as follows: • a. Deparaffinization for 5 min at room temperature in xylene. • b. Gradual rehydration in solutions of descending concentration of ethanol (100%, 80%, 70%, 50% v/v) and finally in TBS (Tris-buffered saline) or PBS (Phosphate-buffered saline) solution. • c. The SSB dye was diluted in 70% ethanol (v/v), filtered and then applied on tissue sections for 10 min. • d. Quick wash in 50% (v/v) ethanol. • e. Transfer and wash in TBS or PBS solution. • f. Counterstain with Hematoxylin or Nuclear Fast Red, followed by mounting with glycerol and sealed with a cover slip. • g. Microscopy observation.
Tissue sections were obtained from paraffin embedded, formalin fixed: (a) human seminal vesicle and (b) human liver with steatohepatitis that have high content of lipofusin making them ideal reference (control) tissues to test the performance of the LG9 compound. Subsequently, they were immobilized on glass microscopy slides by standard procedures and processed as follows: • a. Deparaffinization for 5 min at room temperature in xylene. • b. […]

[3] = system: senescent cells in mouse lung adenomas; assay: Histochemical staining of paraffin embedded, formalin fixed tissue sections, mouse lung adenomas; details: mouse lung adenoma sections; stain in 70% ethanol, 10 min; microscopy
Description: as §1, with “(a) irradiated” for “(a)”, “laryngeal tumors” for “seminal vesicle”, “mouse lung adenomas,” for “human liver”, “established presence” for “steatohepatitis that have high content”, “senescent cells [as described in Georgakopoulou et al, Aging (Albany N.Y.) 2013].” for “lipofusin making them ideal reference (control) tissues to test the SBB assay.”
(§2) Tissue sections were obtained from paraffin embedded, formalin fixed: (a) irradiated human laryngeal tumors and (b) mouse lung adenomas. Subsequently, they were immobilized on glass microscopy slides by standard procedures and processed as follows: • a. Deparaffinization for 5 min at room temperature in xylene. • b. […]

[4] = system: senescent cells in irradiated human laryngeal tumors; assay: Histochemical staining of paraffin embedded, formalin fixed tissue sections, irradiated human laryngeal tumors; details: irradiated human laryngeal tumor sections; stain in 70% ethanol, 10 min; microscopy
Description: as §1, with “(a) irradiated” for “(a)”, “laryngeal tumors” for “seminal vesicle”, “mouse lung adenomas,” for “human liver”, “established presence” for “steatohepatitis that have high content”, “senescent cells [as described in Georgakopoulou et al, Aging (Albany N.Y.) 2013].” for “lipofusin making them ideal reference (control) tissues to test the SBB assay.”
as §2

[5] = system: Saos2-p53 Tet-On cells; assay: Histochemical staining of cell spreads on cover slips; assay type: cell-based; details: Saos2-p53 Tet-On cells after p53 induction; stain in ethanol, 10 min
Description: (§3) Saos2-p53 Tet-On cells were grown on cover slips and collected after p53 induction to induce senescence. Cover slips were treated as follows: • a. Fixation in ice-cold ethanol or methanol for 4 min. • b. Application of SSB Dye, diluted in ethanol and filtered, on cells for 10 min. • c. Quick wash in 50% (v/v) ethanol. • d. Transfer and wash in TBS or PBS solution. • e. Counterstain with Nuclear Fast Red, followed by mounting with glycerol and sealing with a cover slip. • f. Microscopy observation.
as §3, with “collected […]” for “collected”, “the LG9 SBB-analogue,” for “SSB Dye,”

[6] = system: senescent cells in liver biopsies; assay: Histochemical staining of liver tissue sections with high content of lipofuscin
Description: as §1, with “fixed” for “fixed: (a) human seminal vesicle and (b) human”, “biopsies” for “with steatohepatitis”, “lipofusin.” for “lipofusin making them ideal reference (control) tissues to test the SBB assay.”, “LG46 or LG48 analogue” for “SSB dye”

[7] = Ethanol solubility of the stain in the histochemical method; assay type: physicochemical; details: stain diluted in ethanol / 70% ethanol (v/v) and filtered
[8] = system: senescent cells in human thymus; assay: Histochemical staining of human thymus tissue sections (cortex and medulla); details: cortex and medulla of the human thymus
Description: as §1, with “fixed,” for “fixed: (a)”, “thymus” for “seminal vesicle”, “specifically from the cortex and medulla” for “(b) human liver with steatohepatitis that have high content”, “this organ.” for “lipofusin making them ideal reference (control) tissues to test the SBB assay.”, “LG9 SBB-analogue” for “SSB dye”

| SMILES | staining of lipofuscin rich cells [2] | staining of senescent cells [3] | staining of senescent cells [4] | staining of cells [6] | ethanol solubility in the staining method [7] | further results |
| --- | --- | --- | --- | --- | --- | --- |
| CC1(CCCO)Nc2cccc3c(/N=N/c4ccc(/N=N/c5ccccc5)c5ccccc45)ccc(c23)N1 (stereo not drawn) [Example 5, 3-(2-Methyl-6-((E)-(4-((E)-phenyldiazenyl)naphthalen-1-yl)diazenyl)-2,3-dihydro-1H-perimidin-2-yl)propan-1-ol] |  |  |  |  |  | melting point: 124 to 126 °C |
| CC1(C)Nc2cccc3c(/N=N/c4ccc(/N=N/c5ccccc5)c5ccccc45)ccc(c23)N1 [SBB, Sudan Black B, reference compound] | stained cells | clearly stained | clearly stained |  |  | ethanol solubility of the SBB stain [1]: ethanol solubility problems; staining of senescent cells [5]: clearly stained |
| CC1(C)Nc2cccc3c(/N=N/c4ccc(/N=N/c5cccc(O)c5)c5ccccc45)ccc(c23)N1 [LG46, 3-((E)-(4-((E)-(2,2-dimethyl-2,3-dihydro-1H-perimidin-6-yl)diazenyl)naphthalen-1-yl)diazenyl)phenol] |  |  |  | stained cells | does not encounter the ethanol solubility problems |  |
| CC1(C)Nc2cccc3c(/N=N/c4ccc(/N=N/c5ccc(CCO)cc5)c5ccccc45)ccc(c23)N1 [LG48, 2-(4-((E)-(4-((E)-(2,2-dimethyl-2,3-dihydro-1H-perimidin-6-yl)diazenyl)naphthalen-1-yl)diazenyl)phenyl)ethanol] |  |  |  | stained cells | does not encounter the ethanol solubility problems |  |
| CC1(CO)Nc2cccc3c(/N=N/c4ccc(/N=N/c5ccccc5)c5ccccc45)ccc(c23)N1 (stereo not drawn) [LG9, (2-methyl-6-((E)-(4-((E)-phenyldiazenyl)naphthalen-1-yl)diazenyl)-2,3-dihydro-1H-perimidin-2-yl)methanol] | stained cells | stained senescent cells | stained senescent cells |  | does not encounter the ethanol solubility problems | staining of senescent cells [8]: stained senescent cells |
